Values quoted from earlier work as cited in paper PMC7533793 (Cancer, 2009).
Read-outs that look alike come from different tables or passages of the source.

Tested on: in-transit extremity melanoma
Conditions: for CR rate, isolated limb infusion: Sydney Melanoma Unit study
[1] = previously published experience of the authors, without ADH-1

N[C@@H](Cc1ccc(N(CCCl)CCCl)cc1)C(=O)O [melphalan, L-phenylalanine mustard]
CR rate, isolated limb infusion (n = 60, M. D. Anderson stage IIIab (AJCC stage IIIC)): 33% | CR rate, isolated limb infusion (n = 74, M. D. Anderson stage IIIa (AJCC stage IIIB)): 43% | CR rate, isolated limb infusion with LPAM [1]: 30% | PD rate, isolated limb infusion with LPAM [1]: 48% | PR rate, isolated limb infusion with LPAM [1]: 7%
